From ChEMBL document CHEMBL4346710, “Discovery of 7H-pyrrolo[2,3-d]pyrimidine derivatives as selective covalent irreversible inhibitors of interleukin-2-inducible T-cell kinase (Itk)” (Eur J Med Chem, 2019)
The source made the active and inactive calls. The calls are words filed in the database; no cut-off is given here.

Legend:
[1] = biological target: T1, Tyrosine-protein kinase ITK/TSK (Homo sapiens, UniProt Q08881); test: Inhibition of recombinant human N-terminal His6-tagged ITK (352 to 617 residues) expressed in baculovirus infected Sf21 insect cells using STK substrate by HTRF assay
T1 sequence (Q08881 whole entry): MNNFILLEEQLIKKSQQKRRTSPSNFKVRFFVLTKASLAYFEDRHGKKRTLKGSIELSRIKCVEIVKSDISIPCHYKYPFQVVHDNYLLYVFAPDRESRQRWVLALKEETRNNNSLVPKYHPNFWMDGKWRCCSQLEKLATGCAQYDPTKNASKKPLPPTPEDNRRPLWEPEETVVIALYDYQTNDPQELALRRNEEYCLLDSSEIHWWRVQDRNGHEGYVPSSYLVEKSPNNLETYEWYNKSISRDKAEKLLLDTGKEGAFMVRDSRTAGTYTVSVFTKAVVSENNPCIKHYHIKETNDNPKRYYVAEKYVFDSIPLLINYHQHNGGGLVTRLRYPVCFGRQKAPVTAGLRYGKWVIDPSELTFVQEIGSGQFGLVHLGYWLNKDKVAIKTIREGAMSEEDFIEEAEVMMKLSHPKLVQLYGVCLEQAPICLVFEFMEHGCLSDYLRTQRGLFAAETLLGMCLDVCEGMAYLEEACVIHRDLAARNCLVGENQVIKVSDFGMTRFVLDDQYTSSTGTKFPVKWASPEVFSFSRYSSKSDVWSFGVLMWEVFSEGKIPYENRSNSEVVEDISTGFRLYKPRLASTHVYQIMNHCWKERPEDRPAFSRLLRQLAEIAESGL

[2] = biological target: Mitogen-activated protein kinase 8 (Homo sapiens) (UniProt P45983); test: Inhibition of tracer 236 binding to recombinant full length human His-tagged MAPK8 expressed in baculovirus expression system assessed as enzyme residual activity at 0.4 uM incubated for 60 mins by Lanthascreen assay relative to control
[3] = Inhibition of tracer 236 binding to recombinant full length human C-terminal His-tagged AMPK alpha2/beta2/gamma1 expressed in baculovirus infected Sf9 cells assessed as enzyme residual activity at 0.4 uM incubated for 60 mins by Lanthascreen assay relative to control
[4] = test system: CCRF-CEM; test: Induction of apoptosis in human CCRF-CEM cells assessed as downregulation of caspase3 at 1 to 5 uM incubated for 24 hrs by Western blot analysis; assay type: functional, cell-based
[5] = biological target: Mitogen-activated protein kinase 14 (Homo sapiens) (UniProt Q16539); test: Inhibition of recombinant full length human GST-tagged MAPK14 expressed in Escherichia coli assessed as enzyme residual activity at 0.4 uM using fluorophore-labeled serine/threonine-04 peptide as substrate incubated for 60 mins by Z'-LYTE assay relative to control
[6] = test system: Jurkat; test: Growth inhibition of human Jurkat cells incubated for 72 hrs by CellTiter-Glo luminescent cell viability assay; assay type: functional
[7] = species: Homo sapiens; test: Selectivity ratio of IC50 for recombinant human full-length N-terminal His6-tagged BTK expressed in baculovirus infected Sf21 insect cells to IC50 for recombinant human N-terminal His6-tagged ITK (352 to 617 residues) expressed in baculovirus infected Sf21 insect cells
[8] = biological target: Glycogen synthase kinase-3 alpha (Homo sapiens) (UniProt P49840); test: Inhibition of recombinant full length human His-tagged GSK3alpha expressed in baculovirus expression system assessed as enzyme residual activity at 0.4 uM using fluorophore-labeled serine/threonine-9 peptide as substrate incubated for 60 mins by Z'-LYTE assay relative to control
[9] = biological target: T2, Tyrosine-protein kinase ITK/TSK (Homo sapiens) (UniProt Q08881); test: Inhibition of recombinant full-length human GST-tagged ITK cytoplasmic domain expressed in baculovirus expression system assessed as enzyme residual activity at 0.4 uM using fluorophore-labeled tyrosine-1 peptide as substrate incubated for 60 mins by Z'-LYTE assay relative to control
T2 sequence (whole entry): T1 sequence (Q08881 whole entry)

[10] = biological target: TAK1/TAB1 (Homo sapiens, UniProt O43318); test: Inhibition of tracer 222 binding to recombinant full-length human His-tagged MAP3K7/MAP3K7IP1 (437 to 504 residues) expressed in baculovirus expression system by Lanthascreen assay
[11] = biological target: Tyrosine-protein kinase BTK (Homo sapiens, UniProt Q06187); test: Inhibition of BTK in human Ramos cells assessed as reduction in […] PLCgamma2 phosphorylation at 10 to 3000 nM preincubated for 2 hrs followed by […] addition and measured after 30 min by Western blot analysis; assay type: cell-based
[12] = biological target: Insulin-like growth factor 1 receptor (Homo sapiens) (UniProt P08069); test: Inhibition of recombinant human His-tagged IGF1R cytoplasmic domain ([…]) expressed in baculovirus expression system assessed as enzyme residual activity at 0.4 uM using fluorophore-labeled tyrosine-1 peptide as substrate incubated for 60 mins by Z'-LYTE assay relative to control
[13] = test system: CCRF-CEM; test: Induction of apoptosis in human CCRF-CEM cells assessed as upregulation of cleaved PARP at 1 to 5 uM incubated for 24 hrs by Western blot analysis; assay type: functional, cell-based
[14] = biological target: Receptor-type tyrosine-protein kinase FLT3 (Homo sapiens) (UniProt P36888); test: Inhibition of recombinant human His-tagged FLT3 cytoplasmic domain (564 to 958 residues) expressed in baculovirus expression system assessed as enzyme residual activity at 0.4 uM using fluorophore-labeled tyrosine-2 peptide as substrate incubated for 60 mins by Z'-LYTE assay relative to control
[15] = biological target: T3, Tyrosine-protein kinase Lck (Homo sapiens, UniProt P06239); test: Inhibition of recombinant full length human C-terminal His-tagged LCK cytoplasmic domain expressed in baculovirus expression system using fluorophore-labeled tyrosine-2 peptide as substrate incubated for 60 mins by Z'-LYTE assay
[16] = biological target: T3, Tyrosine-protein kinase Lck; test: Inhibition of recombinant full length human C-terminal His-tagged LCK cytoplasmic domain expressed in baculovirus expression system assessed as enzyme residual activity at 0.4 uM using fluorophore-labeled tyrosine-2 peptide as substrate incubated for 60 mins by Z'-LYTE assay relative to control
Target sequence in this assay (P06239 2-509 limits assumed): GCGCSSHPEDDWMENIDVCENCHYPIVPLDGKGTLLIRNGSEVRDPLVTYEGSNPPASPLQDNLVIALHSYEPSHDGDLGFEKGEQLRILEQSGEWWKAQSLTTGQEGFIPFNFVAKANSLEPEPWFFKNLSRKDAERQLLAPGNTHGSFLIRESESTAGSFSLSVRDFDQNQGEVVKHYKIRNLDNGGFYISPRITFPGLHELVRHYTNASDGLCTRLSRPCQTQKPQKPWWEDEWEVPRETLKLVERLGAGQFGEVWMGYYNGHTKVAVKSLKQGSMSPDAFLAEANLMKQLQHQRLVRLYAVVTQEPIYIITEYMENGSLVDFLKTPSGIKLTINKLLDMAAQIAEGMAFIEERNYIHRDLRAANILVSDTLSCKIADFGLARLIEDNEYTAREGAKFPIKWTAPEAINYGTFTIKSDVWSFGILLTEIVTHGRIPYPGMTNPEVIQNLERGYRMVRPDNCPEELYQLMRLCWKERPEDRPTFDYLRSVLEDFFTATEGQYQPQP

[17] = test system: MOLT-4; test: Induction of apoptosis in human MOLT4 cells assessed as downregulation of PARP at 1 to 20 uM incubated for 24 hrs by Western blot analysis; assay type: functional, cell-based
[18] = biological target: Interleukin-1 receptor-associated kinase 4 (Homo sapiens) (UniProt Q9NWZ3); test: Inhibition of recombinant human His-tagged IRAK4 expressed in baculovirus expression system assessed as enzyme residual activity at 0.4 uM using fluorophore-labeled serine/threonine-7 peptide as substrate incubated for 60 mins by Z'-LYTE assay relative to control
[19] = biological target: TAK1/TAB1 (Homo sapiens) (UniProt Q15750+O43318); test: Inhibition of tracer 222 binding to recombinant full-length human His-tagged MAP3K7/MAP3K7IP1 (437 to 504 residues) expressed in baculovirus expression system assessed as enzyme residual activity at 0.4 uM incubated for 60 mins by Lanthascreen assay relative to control
[20] = test system: MOLT-4; test: Induction of apoptosis in human MOLT4 cells assessed as upregulation of cleaved PARP at 1 to 20 uM incubated for 24 hrs by Western blot analysis; assay type: functional, cell-based

Sequence of Tyrosine-protein kinase BTK (Q06187 whole entry, the tested form may be a part): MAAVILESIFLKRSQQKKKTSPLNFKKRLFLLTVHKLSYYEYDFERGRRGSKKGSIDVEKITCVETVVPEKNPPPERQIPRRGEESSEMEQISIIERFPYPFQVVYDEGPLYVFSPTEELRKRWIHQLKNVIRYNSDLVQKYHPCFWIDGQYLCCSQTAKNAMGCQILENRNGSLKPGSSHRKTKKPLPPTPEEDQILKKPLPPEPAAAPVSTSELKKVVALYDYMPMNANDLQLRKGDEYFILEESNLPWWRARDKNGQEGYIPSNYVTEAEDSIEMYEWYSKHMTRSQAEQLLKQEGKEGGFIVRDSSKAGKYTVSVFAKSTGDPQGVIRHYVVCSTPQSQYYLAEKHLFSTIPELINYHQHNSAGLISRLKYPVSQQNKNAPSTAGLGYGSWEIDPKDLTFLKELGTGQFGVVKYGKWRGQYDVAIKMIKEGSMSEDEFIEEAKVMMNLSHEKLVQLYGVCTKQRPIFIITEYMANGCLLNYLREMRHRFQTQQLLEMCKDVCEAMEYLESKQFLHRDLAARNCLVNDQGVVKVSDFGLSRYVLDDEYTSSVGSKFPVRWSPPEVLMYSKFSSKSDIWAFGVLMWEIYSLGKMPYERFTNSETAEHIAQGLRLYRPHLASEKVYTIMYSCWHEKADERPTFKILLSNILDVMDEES
Sequence of Receptor-type tyrosine-protein kinase FLT3 (Homo sapiens) (P36888 whole entry, the tested form may be a part): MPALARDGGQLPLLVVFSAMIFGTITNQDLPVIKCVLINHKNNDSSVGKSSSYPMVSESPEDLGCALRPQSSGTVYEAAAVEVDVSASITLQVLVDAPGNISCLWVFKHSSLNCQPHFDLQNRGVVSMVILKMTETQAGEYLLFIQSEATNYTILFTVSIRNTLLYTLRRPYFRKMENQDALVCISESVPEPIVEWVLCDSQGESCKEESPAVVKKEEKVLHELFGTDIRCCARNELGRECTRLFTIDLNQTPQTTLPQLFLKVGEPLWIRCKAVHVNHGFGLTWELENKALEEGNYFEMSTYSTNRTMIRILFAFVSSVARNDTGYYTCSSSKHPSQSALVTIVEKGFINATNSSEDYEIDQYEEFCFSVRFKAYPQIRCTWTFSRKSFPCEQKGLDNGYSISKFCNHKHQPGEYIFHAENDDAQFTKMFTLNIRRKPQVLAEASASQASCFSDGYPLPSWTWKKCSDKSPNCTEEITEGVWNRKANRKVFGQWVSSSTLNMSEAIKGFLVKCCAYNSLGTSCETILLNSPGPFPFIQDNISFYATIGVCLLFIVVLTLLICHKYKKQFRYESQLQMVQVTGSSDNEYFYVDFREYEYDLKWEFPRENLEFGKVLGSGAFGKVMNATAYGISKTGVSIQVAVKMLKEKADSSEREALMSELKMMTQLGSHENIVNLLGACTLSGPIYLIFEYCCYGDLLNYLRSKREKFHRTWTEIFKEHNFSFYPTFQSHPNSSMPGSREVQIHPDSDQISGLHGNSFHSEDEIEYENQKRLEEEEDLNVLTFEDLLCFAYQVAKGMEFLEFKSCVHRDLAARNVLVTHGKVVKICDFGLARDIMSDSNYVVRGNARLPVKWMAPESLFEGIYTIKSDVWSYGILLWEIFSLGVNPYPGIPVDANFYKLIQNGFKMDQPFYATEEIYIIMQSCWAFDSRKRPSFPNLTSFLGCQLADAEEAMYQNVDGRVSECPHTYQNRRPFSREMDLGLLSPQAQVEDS
Sequence of Glycogen synthase kinase-3 alpha (Homo sapiens) (P49840 2-483 limits assumed): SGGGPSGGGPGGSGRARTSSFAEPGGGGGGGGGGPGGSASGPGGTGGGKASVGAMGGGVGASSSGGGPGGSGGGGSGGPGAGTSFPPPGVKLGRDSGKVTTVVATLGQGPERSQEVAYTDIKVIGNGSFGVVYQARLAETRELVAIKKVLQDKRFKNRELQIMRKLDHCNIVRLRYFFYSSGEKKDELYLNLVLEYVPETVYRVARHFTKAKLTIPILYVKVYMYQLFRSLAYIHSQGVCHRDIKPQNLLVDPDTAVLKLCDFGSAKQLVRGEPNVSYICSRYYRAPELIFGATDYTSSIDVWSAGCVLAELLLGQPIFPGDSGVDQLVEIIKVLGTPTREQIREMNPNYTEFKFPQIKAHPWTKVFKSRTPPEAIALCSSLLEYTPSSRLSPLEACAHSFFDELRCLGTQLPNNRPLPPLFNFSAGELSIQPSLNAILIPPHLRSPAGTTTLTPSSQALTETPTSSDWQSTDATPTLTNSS
Sequence of Mitogen-activated protein kinase 14 (Homo sapiens) (Q16539 whole entry): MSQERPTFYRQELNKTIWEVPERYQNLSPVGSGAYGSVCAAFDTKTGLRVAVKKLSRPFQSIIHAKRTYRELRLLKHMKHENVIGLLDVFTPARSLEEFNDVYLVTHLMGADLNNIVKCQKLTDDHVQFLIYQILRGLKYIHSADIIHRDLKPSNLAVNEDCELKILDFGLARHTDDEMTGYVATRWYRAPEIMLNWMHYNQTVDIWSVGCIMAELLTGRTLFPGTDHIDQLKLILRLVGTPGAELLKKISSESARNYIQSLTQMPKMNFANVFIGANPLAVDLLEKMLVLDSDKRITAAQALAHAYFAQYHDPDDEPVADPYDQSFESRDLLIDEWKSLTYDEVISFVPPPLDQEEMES
Sequence of Interleukin-1 receptor-associated kinase 4 (Homo sapiens) (Q9NWZ3 whole entry, the tested form may be a part): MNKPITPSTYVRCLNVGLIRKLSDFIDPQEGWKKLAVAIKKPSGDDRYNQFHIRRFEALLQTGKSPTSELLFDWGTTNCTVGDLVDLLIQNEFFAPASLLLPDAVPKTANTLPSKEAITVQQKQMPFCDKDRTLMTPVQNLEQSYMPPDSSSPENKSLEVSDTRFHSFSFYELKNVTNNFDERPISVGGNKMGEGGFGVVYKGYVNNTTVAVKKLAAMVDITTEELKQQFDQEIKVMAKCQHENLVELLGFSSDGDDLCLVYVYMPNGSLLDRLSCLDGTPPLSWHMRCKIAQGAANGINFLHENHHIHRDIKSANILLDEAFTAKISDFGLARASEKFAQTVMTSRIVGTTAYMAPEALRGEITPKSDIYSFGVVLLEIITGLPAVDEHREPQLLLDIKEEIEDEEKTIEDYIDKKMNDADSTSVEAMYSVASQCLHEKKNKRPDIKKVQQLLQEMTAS
Sequence of Insulin-like growth factor 1 receptor (Homo sapiens) (P08069 31-736 limits assumed): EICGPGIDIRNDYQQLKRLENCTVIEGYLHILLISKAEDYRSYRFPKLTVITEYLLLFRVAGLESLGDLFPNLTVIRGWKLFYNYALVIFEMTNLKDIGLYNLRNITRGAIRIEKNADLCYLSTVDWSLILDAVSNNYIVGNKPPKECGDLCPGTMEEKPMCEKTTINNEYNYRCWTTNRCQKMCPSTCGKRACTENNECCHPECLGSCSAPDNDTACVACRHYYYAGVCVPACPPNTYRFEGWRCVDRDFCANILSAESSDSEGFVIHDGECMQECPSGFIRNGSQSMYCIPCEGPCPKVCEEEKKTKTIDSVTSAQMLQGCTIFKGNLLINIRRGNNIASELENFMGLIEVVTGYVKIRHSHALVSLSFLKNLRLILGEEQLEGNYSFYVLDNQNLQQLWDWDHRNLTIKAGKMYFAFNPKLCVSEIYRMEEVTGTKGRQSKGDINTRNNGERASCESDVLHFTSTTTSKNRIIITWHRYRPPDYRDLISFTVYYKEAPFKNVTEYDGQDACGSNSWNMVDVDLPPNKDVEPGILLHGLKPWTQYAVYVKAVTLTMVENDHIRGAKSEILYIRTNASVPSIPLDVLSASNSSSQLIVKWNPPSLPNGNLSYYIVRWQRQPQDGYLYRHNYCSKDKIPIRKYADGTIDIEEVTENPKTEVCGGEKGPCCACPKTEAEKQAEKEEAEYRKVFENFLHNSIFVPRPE
Sequence of Insulin-like growth factor 1 receptor (Homo sapiens) (P08069 741-1367 limits assumed): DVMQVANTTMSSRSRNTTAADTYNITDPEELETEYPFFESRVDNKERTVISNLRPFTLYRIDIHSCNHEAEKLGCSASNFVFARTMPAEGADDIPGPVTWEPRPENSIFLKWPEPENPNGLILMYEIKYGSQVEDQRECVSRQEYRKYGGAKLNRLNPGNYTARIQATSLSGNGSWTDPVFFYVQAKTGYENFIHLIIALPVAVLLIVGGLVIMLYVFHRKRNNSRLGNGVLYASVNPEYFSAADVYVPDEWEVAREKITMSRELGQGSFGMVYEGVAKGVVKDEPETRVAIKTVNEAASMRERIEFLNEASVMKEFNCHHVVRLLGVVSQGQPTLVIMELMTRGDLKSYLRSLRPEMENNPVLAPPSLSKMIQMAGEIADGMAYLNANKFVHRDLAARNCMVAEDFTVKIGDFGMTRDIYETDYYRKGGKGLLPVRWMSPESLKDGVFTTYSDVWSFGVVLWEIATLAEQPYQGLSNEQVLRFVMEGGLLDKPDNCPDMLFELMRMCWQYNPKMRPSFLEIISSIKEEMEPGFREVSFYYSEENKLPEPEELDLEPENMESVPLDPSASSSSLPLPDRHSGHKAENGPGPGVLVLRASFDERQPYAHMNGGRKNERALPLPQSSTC

IC50 [1]: 3.7 nM
Ki [1]: 6.3 nM
Activity [2]: 25%
Activity [5]: 95%
GI50 [6]: 184 nM
Activity [8]: 29.3%
Activity [9]: 1%
IC50 [10]: 54 nM
inhibition [11]: inactive
Activity [12]: 84%
Activity [14]: 2.3%
IC50 [15]: 74 nM
Activity [16]: 9%
Activity [18]: 19.3%
Activity [19]: 0%
Structure (SMILES): C=CC(=O)N1CCC(Oc2nc(Nc3ccc(N4CCOCC4)cc3)nc3[nH]cc(-c4cncc(NC)n4)c23)CC1
Activity [3]: 64.3%
Activity [4]: Active
Ratio IC50 [7]: 250
Activity [13]: Active
Activity [17]: Active
Activity [20]: Active
